Measured values reported in PubChem BioAssay AID1259411 (Chemical Carcinogenesis Research Information System (CCRIS), 2018).
Activity calls are given as the source filed them. How the calls were made is not given here.

Tested on: rodent carcinogenicity bioassays, tumor incidence
Experiment: CCRIS carcinogenicity studies
Procedure, shortened: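 NCI-built, expert-reviewed records of carcinogenicity and related test outcomes (mutagenicity, tumor promotion/inhibition) compiled from published and report sources, historical span 1985-2011, not updated.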

SMILES: NC(=O)N/N=C/c1ccc([N+](=O)[O-])o1
- carcinogen call (Species: MOUSE, Strain/Sex: B6C3F1/FEMALE, Route: ORAL, Dose: 0, 150, 310 PPM IN DIET (STUDY DURATION: 2 YR), Dose: 0, 150, 310 PPM IN DIET (STUDY DURATION: 2 YR), Tumor Site: Type of Lesion: OVARIES: GRANULOSA CELL TUMOR): active; positive
- carcinogen call (Species: MOUSE, Strain/Sex: B6C3F1/FEMALE, Route: ORAL, Dose: 0, 150, 310 PPM IN DIET FOR 103 WK (STUDY DURATION: 105 WK), Dose: 0, 150, 310 PPM IN DIET FOR 103 WK (STUDY DURATION: 105 WK), Tumor Site: Type of Lesion: OVARY: GRANULOSA CELL TUMOR, OVARY: GRANULOSA CELL TUMOR OR LUTEOMA;OVARY: MIXED TUMOR,BENIGN, OVARY: TUBULAR CELL ADENO, Tumor Site: Type of Lesion: OVARY: GRANULOSA CELL TUMOR, OVARY: GRANULOSA CELL TUMOR OR LUTEOMA;OVARY: MIXED TUMOR,BENIGN, OVARY: TUBULAR CELL ADENO): active; positive
- carcinogen call (Species: MOUSE, Strain/Sex: B6C3F1/MALE, Route: ORAL, Dose: 0, 150, 310 PPM IN DIET (STUDY DURATION: 2 YR), Dose: 0, 150, 310 PPM IN DIET (STUDY DURATION: 2 YR)): inactive; negative
- carcinogen call (Species: MOUSE, Strain/Sex: B6C3F1/MALE, Route: ORAL, Dose: 0, 150, 310 PPM IN DIET FOR 103 WK (STUDY DURATION: 105 WK), Dose: 0, 150, 310 PPM IN DIET FOR 103 WK (STUDY DURATION: 105 WK)): inactive; negative
- carcinogen call (Species: MOUSE, Strain/Sex: ICR/MALE, FEMALE, Route: SUBCUTANEOUS, Dose: 0, 75 UG/G ONCE WITHIN 12 HR OF BIRTH AND ONCE ON DAYS 7,14 AND 21 OF AGE (STUDY DURATION: 32 WK), Tumor Site: Type of Lesion: LUNG: PAPILLARY ADENOMA): active; positive
- carcinogen call (Species: MOUSE, Strain/Sex: ICR/MALE, FEMALE, Route: TRANSPLACENTAL, Dose: 0, 75 UG/G ADMINISTERED SUBCUTANEOUSLY TO MOTHERS ON DAYS 13, 15 AND 17 OF GESTATION (STUDY DURATION: 33 WK)): inactive; negative
- carcinogen call (Species: RAT, Strain/Sex: F344/FEMALE, Route: ORAL, Dose: 0, 310, 620 PPM IN DIET FOR 103 WK (STUDY DURATION: 105 WK), Dose: 0, 310, 620 PPM IN DIET FOR 103 WK (STUDY DURATION: 105 WK), Tumor Site: Type of Lesion: MAMMARY GLAND: FIBROADENOMA): active; positive
- carcinogen call (Species: RAT, Strain/Sex: F344/MALE, Route: ORAL, Dose: 0, 310, 620 PPM IN DIET FOR 103 WK (STUDY DURATION: 105 WK), Dose: 0, 310, 620 PPM IN DIET FOR 103 WK (STUDY DURATION: 105 WK), Tumor Site: Type of Lesion: SEBACEOUS GLAND: ADENOMA, SKIN: TRICHOEPITHELIOMA, TUNICA VAGINALIS: MESOTHELIOMA, PREPUTIAL GLAND: ADENOMA, CARCINOMA, Tumor Site: Type of Lesion: SEBACEOUS GLAND: ADENOMA, SKIN: TRICHOEPITHELIOMA, TUNICA VAGINALIS: MESOTHELIOMA, PREPUTIAL GLAND: ADENOMA, CARCINOMA): equivocal
- carcinogen call (Species: RAT, Strain/Sex: F344 INBRED/FEMALE, Route: ORAL, Dose: 0, 310, 620 PPM IN DIET (STUDY DURATION: 2 YR), Dose: 0, 310, 620 PPM IN DIET (STUDY DURATION: 2 YR), Tumor Site: Type of Lesion: MAMMARY GLAND: FIBROADENOMA): active; positive

SMILES: CCCCCN(N=O)C(N)=O
- carcinogen call (Species: RAT, Strain/Sex: F344/FEMALE, Route: GAVAGE, Dose: 0, 16 MG/ML (TOTAL DOSE 0; 2 MMOL) IN 2 ML ETHYL ACETATE AND CORN OIL (1:2) 2/WK FOR 50 WK (STUDY DURATION: LIFETIME), Dose: 0, 16 MG/ML (TOTAL DOSE 0; 2 MMOL) IN 2 ML ETHYL ACETATE AND CORN OIL (1:2) 2/WK FOR 50 WK (STUDY DURATION: LIFETIME), Tumor Site: Type of Lesion: FORESTOMACH: SQUAMOUS CELL CARCINOMA, LUNG: TUMOR, UTERUS: TUMOR, Tumor Site: Type of Lesion: FORESTOMACH: SQUAMOUS CELL CARCINOMA, LUNG: TUMOR, UTERUS: TUMOR): active; positive
- carcinogen call (Species: RAT, Strain/Sex: F344/FEMALE, Route: GAVAGE, Dose: 0, 16 MG/ML IN 0.2 ML ETHYL ACETATE AND CORN OIL 2/WK FOR 50 WK (STUDY DURATION: LIFESPAN), Tumor Site: Type of Lesion: FORESTOMACH: TUMOR, LUNG: TUMOR, UTERUS: TUMOR, Tumor Site: Type of Lesion: FORESTOMACH: TUMOR, LUNG: TUMOR, UTERUS: TUMOR): active; positive
- carcinogen call (Species: RAT, Strain/Sex: F344/MALE, Route: GAVAGE, Dose: 0, 16 MG/ML (TOTAL DOSE 0; 2 MMOL) IN 2 ML ETHYL ACETATE AND CORN OIL (1:2) 2/WK FOR 50 WK (STUDY DURATION: LIFETIME), Dose: 0, 16 MG/ML (TOTAL DOSE 0; 2 MMOL) IN 2 ML ETHYL ACETATE AND CORN OIL (1:2) 2/WK FOR 50 WK (STUDY DURATION: LIFETIME), Tumor Site: Type of Lesion: FORESTOMACH: SQUAMOUS CELL CARCINOMA, LUNG: TUMOR, BODY CAVITY: MESOTHELIOMA, Tumor Site: Type of Lesion: FORESTOMACH: SQUAMOUS CELL CARCINOMA, LUNG: TUMOR, BODY CAVITY: MESOTHELIOMA): active; positive
- carcinogen call (Species: RAT, Strain/Sex: F344/MALE, Route: GAVAGE, Dose: 0, 16 MG/ML IN 0.2 ML ETHYL ACETATE AND CORN OIL 2/WK FOR 50 WK (STUDY DURATION: LIFESPAN), Tumor Site: Type of Lesion: FORESTOMACH: TUMOR, LUNG: TUMOR: PERITONEUM: MESOTHELIOMA, SKIN: TUMOR, Tumor Site: Type of Lesion: FORESTOMACH: TUMOR, LUNG: TUMOR: PERITONEUM: MESOTHELIOMA, SKIN: TUMOR): active; positive

SMILES: CC(=O)OC/C=C(\C)CCC=C(C)C
- carcinogen call (Species: MOUSE, Strain/Sex: B6C3F1/MALE, Route: GAVAGE, Dose: 0, 500 MG/KG OF FOOD GRADE (29% CITRONELLYL ACETATE) IN CORN OIL 5D/WK FOR 102 WK (STUDY DURATION: 104 WK)): inactive; negative
- carcinogen call (Species: RAT, Strain/Sex: F344/FEMALE, Route: GAVAGE, Dose: 0, 1000, 2000 MG/KG OF FOOD GRADE (29% CITRONELLYL ACETATE) IN CORN OIL 5D/WK FOR 103 WK (STUDY DURATION: 104 WK), Dose: 0, 1000, 2000 MG/KG OF FOOD GRADE (29% CITRONELLYL ACETATE) IN CORN OIL 5D/WK FOR 103 WK (STUDY DURATION: 104 WK)): inactive; negative
- carcinogen call (Species: RAT, Strain/Sex: F344/MALE, Route: GAVAGE, Dose: 0, 1000 MG/KG OF FOOD GRADE (29% CITRONELLYL ACETATE) IN CORN OIL 5D/WK FOR 103 WK (STUDY DURATION: 104 WK)): inactive; negative

SMILES: CCc1cc(C(N)=S)ccn1
- carcinogen call (Species: MOUSE, Route: ORAL, Tumor Site: Type of Lesion: THYROID GLAND): active; positive
- carcinogen call (Species: MOUSE, Strain/Sex: B6C3F1/FEMALE, Route: ORAL, Dose: 0, 1000, 2000 PPM IN DIET, Dose: 0, 1000, 2000 PPM IN DIET): inactive; negative
- carcinogen call (Species: MOUSE, Strain/Sex: B6C3F1/MALE, Route: ORAL, Dose: 0, 1000, 2000 PPM IN DIET, Dose: 0, 1000, 2000 PPM IN DIET): inactive; negative
- carcinogen call (Species: RAT, Strain/Sex: F344/FEMALE, Route: ORAL, Dose: 0, 1500, 3000 PPM IN DIET, Dose: 0, 1500, 3000 PPM IN DIET): inactive; negative
- carcinogen call (Species: RAT, Strain/Sex: F344/MALE, Route: ORAL, Dose: 0, 1500, 3000 PPM IN DIET, Dose: 0, 1500, 3000 PPM IN DIET): inactive; negative

SMILES: Clc1cc(Cl)c(-c2cc(Cl)c(Cl)cc2Cl)cc1Cl
- carcinogen call (Species: RAT, Strain/Sex: SPRAGUE-DAWLEY/FEMALE, Route: ORAL, Dose: 0, 10, 100, 300, 1000, 3000 NG/KG/D (STUDY DURATION: 2 YRS), Dose: 0, 10, 100, 300, 1000, 3000 NG/KG/D (STUDY DURATION: 2 YRS)): inactive; negative
- carcinogen call (Species: Rat, Strain/Sex: Harlan Sprague-Dawley/Female, Route: Gavage, Dose: 0, 3000 ug/kg in corn oil:acetone (99:1) 5 d/wk for 30 wk then vehicle for remainder of 2 yr study, Tumor Site: Type of Lesion: Liver: Cholangioma (0/53, 2/50)): equivocal
- carcinogen call (Species: Rat, Strain/Sex: Harlan Sprague-Dawley/Female, Route: Gavage, Dose: 0, 10, 100, 300, 1000, 3000 ug/kg in corn oil:acetone (99:1) 5 d/wk for 2 yr, Dose: 0, 10, 100, 300, 1000, 3000 ug/kg in corn oil:acetone (99:1) 5 d/wk for 2 yr; Tumor Site: Type of Lesion: Liver: Cholangioma 0/53, 0/54, 0/53, 0/53, 2/53, 0/51)): equivocal

SMILES: O[C@@H]1[C@@H](O)[C@@H]2OC[C@@H](O2)[C@H]1O
- carcinogen call (Species: MOUSE, Strain/Sex: CD-1/FEMALE, Route: DERMAL, Dose: 0, 20 UMOL/0.1 ML DMSO 2/WK FOR 5 WK FOLLOWED 1 WK LATER BY 0.1 ML ACETONE 2/WK FOR 47 WK (STUDY DURATION: 52 WK)): inactive; negative

SMILES: c1ccc2cc3c(cc2c1)-c1cccc2cccc-3c12
- carcinogen call (Species: MOUSE, Route: DERMAL, Tumor Site: Type of Lesion: INTEGUMENTARY SYSTEM (SKIN)): active; positive
- carcinogen call (Species: RAT, Strain/Sex: OSBORNE-MENDEL/FEMALE, Route: LUNG IMPLANT, Dose: 0, 0.16, 0.83, 4.15 MG IN BEESWAX/TRIOCTANOIN (STUDY DURATION: LIFETIME), Dose: 0, 0.16, 0.83, 4.15 MG IN BEESWAX/TRIOCTANOIN (STUDY DURATION: LIFETIME), Tumor Site: Type of Lesion: LUNG: EPIDERMOID CARCINOMA): active; positive

SMILES: NNc1ccccc1
- carcinogen call (Species: MOUSE, Route: ORAL, Tumor Site: Type of Lesion: BLOOD VESSELS, LUNG): active; positive
